# Experimental data reported in patent US5690954A, “Enhanced uptake drug delivery system having microspheres containing an active drug and a bioavailability improving material” (priority 1987, dated 1997).
# Read-outs that look alike come from different tables or passages of the source.
# B1: CCK: CCK (peptide, UniProt P06307 21-115, looked up)
# Cholecystokinin: QPVPPADPAGSGLQRAEEAPRRQLRVSQRTDGESRAHLGALLARYIQQARKAPSGRMSIVKNLQNLDPSHRISDRDYMGWMDFGRRSAEEYEYPS
# Legend:
# [1] = Maximum loading capacity of albumin microspheres; assay type: physicochemical; details: emulsion technique
# Experimental: The active agent can be incorporated into the microspheres during their formulation or sorbed into/onto the system after preparation.
# Albumin microspheres were prepared as described above by an emulsion technique with a stirring speed of 900 rpm and the model drug dissolved in the albumin solution at various concentrations.
# Concentrations of 0.5, 2, 4 and 5% w/v Rose bengal were used. […] Due to the solution characteristics of sodium cromoglycate in water the highest concentration that could be used was […]. Thus, microspheres were manufactured from solutions containing 0.5, 1, 2 and 4% w/v sodium cromoglycate.
# [2] = Zn-/Na-insulin nasal in rabbits, plasma glucose; assay type: in vivo, New Zealand White rabbits; details: rabbit; for shape of plasma glucose curves versus s.c.: intranasal microspheres and LPC 2.5 IU/kg versus 0.6 IU/kg s.c.; for plasma glucose levels: intranasal microspheres and LPC, 2.5 IU/kg; for plasma glucose levels versus simple insulin solution: intranasal solution with 0.2% LPC, about 2.3 IU/kg
# Experimental: Preparations of Zn-insulin (mainly hexamer form) or Na-insulin (mainly monomer/dimer forms) were administered nasally to rabbits either as free insulin or as a microsphere delivery system with lysophosphatidylcholine (LPC) as a bioavailability increasing material. The experiments were performed in replicate (n=4).
# Non-fasted New Zealand White female rabbits of average weight 3.5 kg were used in this study.
# A 40 IU/ml Zn- or Na-human insulin solution was prepared in buffer (1/75M Na2 HPO4) of pH 7.3-7.4. In some experiments 0.2% LPC was added.
# A total of 200 μl of the solution (100 μl in each nostril) was administered intranasally equivalent to about 2.3 IU/kg using an Eppendorf pipette.
# The rabbits were dosed s.c. with insulin at 0.8 IU/kg or 0.6 IU/kg from a 14 IU/ml or 10 IU/ml aqueous solution, respectively.
# The dose of starch microspheres and insulin was fixed at 2.5 mg/kg and 2.5 IU/kg, respectively. The dose of LPC was 0.2 mg/kg. The average weight of the rabbits was 3.5 kg.
# 25 mg of microspheres were placed in a small glass vial and 250 μl of a 100 IU/ml insulin solution (Na- or Zn-insulin) was added followed by the 2 mg LPC and 250 μl of distilled water. The microspheres were then allowed to stand for 2 h at room temperature in contact with the insulin solution before freeze drying.
# Approximately 15 mg of the freeze dried powder from each individual vial was filled into the applicator tubing, and this was stored in a dessicator until use.
# Each rabbit was held on its back during, and for 10 second after, the application to ensure the delivery of the powdered formulation. Blood samples of 200 μl and 2 ml for glucose and insulin determination, respectively, were collected from the marginal ear vein at 10 and 5 min prior to the administration and at 5, 15, 30, 45, 60, 90, 120 and 180 min post-administration. […] The blood samples for glucose analysis were kept on crushed ice awaiting immediate analysis.
# [3] = Zn-human insulin nasal, in situ rat model, plasma glucose; assay type: in vivo, male Wistar rats
# Experimental: The Hirai's in situ model (as modified by Fisher) was used to study the nasal absorption of insulin using non-diabetic male Wistar Rats of 150 g fasted overnight. The rats were anaesthetized with an i.p. injection of 0.25 ml of Pentobarbitone (60 mg/ml).
# A 250 IV/ml solution of Zinc (Zn)-human insulin was prepared in buffer (1/75M Na2 HPO4)) of pH 7.3. In some experiments 0.2% of LPC or for comparison 1% Glycodeoxycholate (GDC) were added to the preparation as absorption enhancers. The experiments were performed in replicate (n=4). 10 μl was administered into the nasal cavity equivalent to 16.67 IV/kg (2.5 IV/rat). Blood samples (0.2 ml) were collected into 5 ml fluoride oxalate tubes at 10, 6 and 2 min pre-administration and at 5, 10, 20, 40, 60, 90, 120, 180, 240 and 300 min post-administration. The blood was replaced by saline administered through the jugular vein.
# [4] = Bioavailability enhancement by microspheres plus bioavailability increasing material (general statement)
# Source text: The material selected for these studies has been lysophosphatidylcholine (described above).
# [5] = cited from earlier work
# [6] = sheep, in vivo, 5 mg/kg
# Experimental: Cross-bred (Suffolk and Texel) sheep were divided into groups of 3 and 2. The mean weight of the sheep was about 40 kg.
# The animals were not fasted prior to the administration of gentamicin. […] The catheter was removed upon completion of the study. […] The sedation lasted about 3 minutes. The animals that received gentamicin by the IV route were also sedated.
# The first group of sheep (n=2) was given 0.25 ml of gentamicin solution (386 mg/ml) (5.0 mg/kg) into each nostril. The second group (n=3) received 0.25 ml of gentamicin solution (386 mg/ml) (5.0 mg/kg) containing 2 mg/ml LPC into each nostril. The third group (n=3) received 5.0 mg/kg gentamicin and 0.2 mg/kg LPC in combination with starch microspheres (1.9 mg gentamicin-/mg starch microspheres). The last group of sheep (n=3) was given 2 mg/kg gentamicin administered intravenously as a solution (40 mg/ml) through the jugular vein. Blood samples (2 ml) were collected through the jugular vein at 0, 8, 16, 24, 32, 45, 60, 90, 120, 180 and 240 min after drug administration. The serum was separated by centrifugation and the samples stored at -20° C. awaiting analysis. No heparin was added to any of the samples. The gentamicin level was determined by the EMIT technique (16).
# [7] = parameters: species or system Male Wistar rats; details: rat, in vivo
# Experimental: The in situ rat model of Hirai et al (14) was used as modified by Fisher et al (15). Male Wistar rats of about 200 g were anaesthetized by intraperitoneal injection of 60 mg/kg of Pentobarbitone (Sagatal, 60 mg/ml). The rats were tracheotomized, the oesophagus sealed and the carotid artery cannulated.
# A volume of the gentamicin solution containing 0.5% of the drug with and without added lysophosphatidylcholine (LPC) (0.2%) was instilled into the nasal cavity. Blood samples were withdrawn from the carotid artery at 0, 5, 10, 15, 30, 45, 60 and 120 min after drug administration. The gentamicin level was determined by the EMIT method (16).
# [8] = in vivo
# [9] = hGH nasal, in situ rat model (ELISA); assay type: in vivo, male Wistar rats
# Experimental: For all experiments biosynthetic hGH was used.
# As before the experiments were performed using the rat in situ model described by Hirai and modified by Fisher.
# Non-fasted male Wistar rats of about 200 g were divided into groups of 4 and anaesthetized using an i.p. injection of 0.35 ml of pentobarbitone (60 mg/ml).
# Three different hGH preparations were administered to the rats namely a 10 mg/ml solution of hGH in potassium phosphate buffer (1/75M), pH=7.2, as before with the addition of 0.05% LPC and as before with the addition of 0.5% LPC.
# 20 μl (1 mg/kg) of either of the three preparations were administered intranasally by means of a plastic tubing.
# All experiments were performed in replicate. Blood samples, 20 drops were collected and kept on ice at times 0, 5, 10, 20, 30, 40, 50, 60, 90, 120, 180, 240 and 300 min after the application. The plasma was separated and stored at -20° C. until analysis.
# [10] = cited from earlier work; remark: listed apart in the source
# [11] = nasal, cited from earlier work
# [12] = intranasal, simple solution, versus intravenous; cited from earlier work
# [13] = microspheres with lysophosphatidylcholine
# [14] = intranasal solution without enhancer, 1 mg/kg
molecule,measurement,setting,value
O=C([O-])c1c(Cl)c(Cl)c(Cl)c(Cl)c1-c1c2cc(I)c(=O)c(I)c-2oc2c(I)c([O-])c(I)cc12.[Na+].[Na+] [Rose bengal],maximum loading capacity,[1],170 μg per mg albumin microspheres
Zn-insulin: Zn-insulin (mainly hexamer form),shape of plasma glucose curves versus s.c.,[2],surprisingly similar to the ones obtained for the s.c. administration
same,plasma glucose levels,[2],even more drastic decreases
same,plasma glucose levels versus simple insulin solution,[2],lowered significantly
same,lowering of plasma glucose level,[3]; intranasal simple solution,not effective
same,plasma glucose level,"[3]; intranasal, with 0.2% LPC",fast and significant drop
"NC(=O)CC[C@@H]1NC(=O)[C@H](Cc2ccccc2)NC(=O)[C@H](Cc2ccc(O)cc2)NC(=O)CCSSC[C@@H](C(=O)N2CCC[C@H]2C(=O)N[C@H](CCCN=C(N)N)C(=O)NCC(N)=O)NC(=O)[C@H](CC(N)=O)NC1=O [DDVAP, reference compound]","enhancement concept, outcome",[4]; in vivo,successful
calcitonin: calcitonin [reference compound],"enhancement concept, outcome",[4]; [13],successful
gentamicin,nasal absorption,"[5]; into the nose, without enhancer",poorly absorbed
same,biological availability with bile salts,"[5]; nasal, added bile salts",enhanced
same,bioavailability versus IV dose,[6],57.3%
same,peak blood level,[6],0.4 µg/mL
same,bioavailability,[7],poor bioavailability
same,peak level relative to solution alone,[7],five fold greater
same,"enhancement concept, outcome",[4]; in vivo,successful
Na-insulin: Na-insulin (mainly monomer/dimer forms),shape of plasma glucose curves versus s.c.,[2],surprisingly similar to the ones obtained for the s.c. administration
same,plasma glucose levels,[2],even more drastic decreases
same,plasma glucose levels versus simple insulin solution,[2],lowered significantly
hGH: biosynthetic hGH,bioavailability versus subcutaneous injection,[8],about 20%
same,plasma level with microspheres and LPC,[8],increased considerably
same,shape of profile,[8]; sc,flatter profile
same,nasal absorption,[9]; [14],not absorbed at any significant degree
same,plasma level peak,[9]; [14],about 3.5 ng/ml
same,effect of 0.05% LPC on absorption,[9]; intranasal with 0.05% LPC,no effect
same,AUC,[9]; intranasal with 0.5% LPC,very significant increase
same,plasma level peak,"[9]; intranasal with 0.5% LPC, 1 mg/kg",about 57 ng/ml
same,"enhancement concept, outcome",[4]; [13],successful
CC(=O)[C@H]1CC[C@H]2[C@@H]3CCC4=CC(=O)CC[C@]4(C)[C@H]3CC[C@]12C [progesterone],time of peak concentration,[10]; nasal route,approximately 6 minutes
same,"bioavailability, oral","[10]; oral route, compared to IV administration",~1.2%
same,"effectiveness, oral",[10]; oral route,largely ineffective
O=C(O)c1cc(=O)c2c(OCC(O)COc3cccc4oc(C(=O)O)cc(=O)c34)cccc2o1 [sodium cromoglycate],maximum loading capacity,[1],137 μg per mg albumin microspheres
salmon calcitonin,plasma calcitonin increase,[11]; in combination with a surfactant,significant increase
same,AUC increase,[11]; with surfactant enhancer,10 fold
same,plasma calcitonin,[11]; without enhancer,only trace amounts
CC(C)NC[C@H](O)COc1cccc2ccccc12 (racemic) [propanolol],plasma levels,[12],identical to intravenous administration
B1,"enhancement concept, outcome",[4]; [13],successful
